Among the test systems are 786-0; A549; COLO 205; EKVX; HOP-92; KM12; MOLT-4; NCI-H522; OVCAR-4; OVCAR-5; RPMI-8226; RXF 393; SF-268; SK-MEL-5; SK-OV-3; SN12C; TK-10.
Holding throughout (test): growth of human tumour cells (NCI), 48 h

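Exposure lasted 48 hours, with cells grown in 96-well plates and compounds tested at five concentrations. The concentration for 50% growth inhibition is given as GI50.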 Calls of active or inactive are those of the source. Cut-off read from the data, not from the text of the source: active = GI50 up to about 1.1 µM and inactive = higher. Some results are limits rather than exact numbers.

On to `CC(C)N(C(=O)C12C3C4C1(I)C1C2C3(I)C41C(=O)N(C(C)C)C(C)C)C(C)C` (centres undefined), for which the GI50 is > 45.7 µM (inactive) in the assay with 786-0; > 100 µM (inactive) in the assay with A549; > 57.3 µM (inactive) in the assay on COLO 205; > 100 µM (inactive) in the assay on EKVX; > 100 µM (inactive) with HOP-92; > 43.2 µM (inactive) with KM12. The GI50 is > 100 µM (inactive) in the assay on MOLT-4; > 75.9 µM (inactive) in the assay on NCI-H522; > 58.5 µM (inactive) with OVCAR-4; > 100 µM (inactive) with OVCAR-5; > 52.2 µM (inactive) with RPMI-8226; > 100 µM (inactive) with RXF 393. Besides, the GI50 in the assay with SF-268, with SK-MEL-5, in the assay on SK-OV-3, in the assay on SN12C and in the assay on TK-10 was > 100 µM (inactive) each time.

Regarding `CCCCCNC(=O)C1C(=O)N(CCCCC)C(=O)/C1=N\N` (centres undefined), the GI50 is > 100 µM (inactive) in the assay with 786-0; 77.6 µM (inactive) with A549; > 100 µM (inactive) in the assay with COLO 205; 86.7 µM (inactive) in the assay on EKVX; 37.8 µM (inactive) in the assay with HOP-92; 53.2 µM (inactive) with KM12. Also, the GI50 with MOLT-4 is 40.8 µM (inactive); in the assay with NCI-H522, 31.6 µM (inactive); with OVCAR-4, 61.8 µM (inactive); in the assay on OVCAR-5, > 100 µM (inactive); with SF-268, 63.8 µM (inactive); in the assay with SK-MEL-5, 29 µM (inactive). Moreover, the GI50 with SN12C was 54.2 µM (inactive); in the assay with TK-10 it was > 100 µM (inactive).

As for `C=CCc1cc(OC)c(O)c(C(=O)/C=C/c2ccc(OC)c(OC)c2)c1`, the GI50 is 18.2 µM (inactive) with 786-0; 28.9 µM (inactive) in the assay on A549; 15.3 µM (inactive) in the assay with COLO 205; 20.2 µM (inactive) in the assay with EKVX; 19.5 µM (inactive) in the assay on KM12; 1.2 µM (inactive) in the assay on MOLT-4. Besides, the GI50 in the assay with NCI-H522 was 1.86 µM (inactive); in the assay on OVCAR-4 it was 16.2 µM (inactive); with OVCAR-5, 20.1 µM (inactive); in the assay with RPMI-8226 it was 0.67 µM (active); with SF-268 it was 24.4 µM (inactive); with SK-MEL-5, 15.3 µM (inactive). Besides, the GI50 was 28.5 µM (inactive) in the assay on SK-OV-3 and 25.1 µM (inactive) with TK-10.

For `Clc1c(Cl)c2c(Cl)c(Cl)c1C[PH](c1ccccc1)(c1ccccc1)CC[PH](c1ccccc1)(c1ccccc1)Cc1c(Cl)c(Cl)c(c(Cl)c1Cl)C[PH](c1ccccc1)(c1ccccc1)CC[PH](c1ccccc1)(c1ccccc1)C2`, the GI50 in the assay on 786-0 was 4.67 µM (inactive); in the assay on A549, 3.72 µM (inactive); in the assay on COLO 205, 1.53 µM (inactive); in the assay with EKVX, 9.08 µM (inactive); with HOP-92, 2.26 µM (inactive); with KM12 it was 2.34 µM (inactive). Further, the GI50 in the assay on MOLT-4 is 3.27 µM (inactive); in the assay with NCI-H522 it was 2.56 µM (inactive); in the assay with OVCAR-4, 1.11 µM (active); in the assay with OVCAR-5 it was 3.15 µM (inactive); with RPMI-8226, 1.28 µM (inactive); with RXF 393, 2.49 µM (inactive). Also, the GI50 was 3.39 µM (inactive) in the assay on SF-268; 1.67 µM (inactive) in the assay with SK-MEL-5; 6.84 µM (inactive) with SK-OV-3; 3.28 µM (inactive) with SN12C; 3.18 µM (inactive) in the assay on TK-10.

Turning to `CCOC(=O)/C=C(/CN1C(=O)c2ccccc2C1=O)c1ccccc1`, the GI50 with 786-0, in the assay on A549, in the assay on COLO 205, in the assay on EKVX, with HOP-92 and in the assay with KM12 was > 100 µM (inactive) each time. In addition, the GI50 in the assay on MOLT-4, with NCI-H522, in the assay with OVCAR-4, in the assay on OVCAR-5, in the assay with RPMI-8226 and in the assay on RXF 393 was > 100 µM (inactive) each time. The GI50 with SF-268, in the assay on SK-MEL-5, with SK-OV-3, in the assay with SN12C and in the assay on TK-10 was > 100 µM (inactive) each time.

In the case of `Cc1ccc(C(=O)C#Cc2cnc(O)nc2O)cc1`, the GI50 is 13.4 µM (inactive) in the assay on 786-0; 18.3 µM (inactive) with A549; 13 µM (inactive) in the assay on COLO 205; 17.2 µM (inactive) in the assay with EKVX; 18.6 µM (inactive) in the assay on HOP-92; 14.7 µM (inactive) with KM12. Further, the GI50 with MOLT-4 is 3.41 µM (inactive); in the assay with OVCAR-4 it was 21.8 µM (inactive); in the assay with OVCAR-5, 18.9 µM (inactive); in the assay on RXF 393 it was 2.99 µM (inactive); with SF-268, 13.1 µM (inactive); in the assay with SK-MEL-5 it was 13.6 µM (inactive). Further, the GI50 was 25.2 µM (inactive) in the assay on SK-OV-3, 4.55 µM (inactive) with SN12C and 18 µM (inactive) in the assay with TK-10.

`O=c1[nH]cc(COCC(O)CO)c(=O)[nH]1` (centres undefined): the GI50 with 786-0, in the assay on A549, in the assay on COLO 205, with EKVX, with HOP-92 and in the assay with KM12 was > 100 µM (inactive) each time. Besides, the GI50 with MOLT-4, in the assay on NCI-H522, in the assay on OVCAR-4, in the assay with OVCAR-5, in the assay with RPMI-8226 and with RXF 393 was > 100 µM (inactive) throughout. In addition, the GI50 in the assay on SF-268, with SK-MEL-5, in the assay with SK-OV-3, in the assay with SN12C and in the assay on TK-10 was > 100 µM (inactive) in each case.

Consider `O=C1NC(=O)C(=Cc2c3ccccc3cc3ccccc23)C(=O)N1`, for which the GI50 is > 100 µM (inactive) with 786-0; > 100 µM (inactive) in the assay on A549; > 100 µM (inactive) in the assay with COLO 205; > 100 µM (inactive) with HOP-92; 55.5 µM (inactive) in the assay on MOLT-4; > 100 µM (inactive) in the assay on NCI-H522. The GI50 is 31.6 µM (inactive) in the assay with RPMI-8226; > 100 µM (inactive) in the assay on RXF 393; > 100 µM (inactive) in the assay with SF-268; > 100 µM (inactive) in the assay on SK-MEL-5; > 100 µM (inactive) with SK-OV-3; > 100 µM (inactive) in the assay on SN12C. The GI50 in the assay on TK-10 was > 100 µM (inactive).

For the compound `Cc1nn(-c2ccccc2)c2nc(N3CCOCC3)nnc12`, the GI50 was > 100 µM (inactive) with 786-0; 94.4 µM (inactive) in the assay with A549; > 100 µM (inactive) with COLO 205; > 100 µM (inactive) in the assay with EKVX; > 100 µM (inactive) with KM12; 40.6 µM (inactive) with MOLT-4. For the same compound, the GI50 was 34.7 µM (inactive) in the assay with OVCAR-4; > 100 µM (inactive) in the assay with OVCAR-5; 46.6 µM (inactive) with RPMI-8226; > 100 µM (inactive) with RXF 393; > 100 µM (inactive) in the assay with SF-268; 49.2 µM (inactive) with SK-MEL-5. For the same compound, the GI50 with SK-OV-3, with SN12C and in the assay with TK-10 was > 100 µM (inactive) throughout.

These data come from ChEMBL document CHEMBL1201862, “PubChem BioAssay data set” (2004).
